Each molecule was assayed against USP30 (Homo sapiens (Human), UniProt Q70CQ3) (assay: USP30 Biochemical IC50 Assay). Settings: fluorescence polarisation, TAMRA labelled peptide linked to ubiquitin; 30 min pre-incubation, read after 2 h at room temperature; read-out: IC50 range.
Procedure: USP30 Biochemical IC50 Assay
Dilution plates were prepared at 21 times the final concentration (2100 μM for a final concentration of 100 μM) in 50% DMSO in a 96-well polypropylene V-bottom plate (Greiner #651201). A typical 8-point dilution series would be 100, 30, 10, 3, 1, 0.3, 0.1, […]. Reactions were performed in duplicate in black 384 well plates (small volume, Greiner 784076) in a final reaction volume of 21 μl. Either 1 μl of 50% DMSO or diluted compound was added to the plate. USP30 was diluted in reaction buffer (40 mM Tris, pH 7.5, 0.005% Tween 20, 0.5 mg/ml BSA, 5 mM beta-mercaptoethanol) to the equivalent of 0.05 μl/well and 10 μl of diluted USP30 was added to the compound. Enzyme and compound were incubated for 30 min at room temp. Reactions were initiated by the addition of 50 nM of TAMRA labelled peptide linked to ubiquitin via an iso-peptide bond as fluorescence polarisation substrate. Reactions were read immediately after addition of substrate and following a 2 h incubation at room temperature. Readings were performed on a Pherastar Plus (BMG Labtech). λ Excitation 540 nm; λ Emission 590 nm.

Sequence of USP30 (Q70CQ3 57-517): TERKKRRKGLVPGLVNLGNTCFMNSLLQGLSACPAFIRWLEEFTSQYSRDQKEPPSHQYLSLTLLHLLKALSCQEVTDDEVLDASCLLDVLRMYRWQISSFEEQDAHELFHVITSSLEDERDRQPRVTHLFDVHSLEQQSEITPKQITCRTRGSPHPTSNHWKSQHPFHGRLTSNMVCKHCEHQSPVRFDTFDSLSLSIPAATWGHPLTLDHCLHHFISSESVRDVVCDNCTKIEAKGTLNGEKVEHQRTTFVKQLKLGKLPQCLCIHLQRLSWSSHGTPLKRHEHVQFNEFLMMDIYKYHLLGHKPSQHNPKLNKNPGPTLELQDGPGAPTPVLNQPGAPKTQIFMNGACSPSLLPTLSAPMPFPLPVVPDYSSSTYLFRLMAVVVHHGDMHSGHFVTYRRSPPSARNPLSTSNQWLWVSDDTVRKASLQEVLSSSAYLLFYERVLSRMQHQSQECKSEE

Compound | IC50
N#CN1CCCC(F)(c2nc3ccc(-c4ccn[nH]4)nc3[nH]2)C1 (racemic) [Example 17, 3-(5-(1H-pyrazol-5-yl)-3H-imidazo[4,5-b]pyridin-2-yl)-3-fluoropiperidine-1-carbonitrile] | 1000 to 10000 nM
N#Cc1cccc(-c2ccc3nc(C4(F)CCCN(C#N)C4)[nH]c3n2)c1 (stereo in doubt) [Example 16, (S)-3-(5-(3-cyanophenyl)-3H-imidazo[4,5-b]pyridin-2-yl)-3-fluoropiperidine-1-carbonitrile] | 10 to 100 nM
N#Cc1cccc(-c2cnc3oc([C@@]4(F)CCCN(C#N)C4)nc3c2)c1 (stereo in doubt) [Example 28, 3-(6-(3-cyanophenyl)oxazolo[5,4-b]pyridin-2-yl)-3-fluoropiperidine-1-carbonitrile] | 100 to 1000 nM
N#CN1CCOC(c2nc(-c3cccc(-c4ccccc4)c3)n[nH]2)C1 (centres unmarked) [Example 6, 2-(3-([1,1′-Biphenyl]-3-yl)-H-1,2,4-triazol-5-yl)morpholine-4-carbonitrile] | 1000 to 10000 nM
N#CN1CCC[C@](F)(c2nnc(-c3cccc(-c4ccccc4)c3)o2)C1 [Example 9, (R)-3-(5-([1,1′-biphenyl]-3-yl)-1,3,4-oxadiazol-2-yl)-3-fluoropiperidine-1-carbonitrile] | 10 to 100 nM
N#CN1CCCC(F)(c2nnc(-c3ccc(-c4ccccc4)cc3)o2)C1 (centres unmarked) [Example 10, 3-(5-([1,1′-biphenyl]-4-yl)-1,3,4-oxadiazol-2-yl)-3-fluoropiperidine-1-carbonitrile] | 100 to 1000 nM
N#Cc1cc(-c2cc(-c3nnc([C@@]4(F)CCCN(C#N)C4)o3)ccn2)ccn1 [Example 11, (R)-4-(5-(1-cyano-3-fluoropiperidin-3-yl)-1,3,4-oxadiazol-2-yl)-[2,4′-bipyridine]-2′-carbonitrile] | 100 to 1000 nM
N#Cc1cc(-c2nnc([C@@]3(F)CCCN(C#N)C3)o2)ccn1 [Example 12, (R)-4-(5-(1-cyano-3-fluoropiperidin-3-yl)-1,3,4-oxadiazol-2-yl)picolinonitrile] | 1000 to 10000 nM
N#Cc1cc(-c2ccnc(-c3nnc([C@@]4(F)CCCN(C#N)C4)o3)c2)ccn1 [Example 13, (R)-2′-(5-(1-cyano-3-fluoropiperidin-3-yl)-1,3,4-oxadiazol-2-yl)-[4,4′-bipyridine]-2-carbonitrile] | 1000 to 10000 nM
N#CN1CCCC(F)(c2nc3ccc(-c4ccn[nH]4)cc3[nH]2)C1 (centres unmarked) [Example 14, 3-(6-(H-pyrazol-5-yl)-1H-benzo[d]imidazol-2-yl)-3-fluoropiperidine-1-carbonitrile] | 1000 to 10000 nM
N#CN1CCC[C@](F)(c2nc3ccc(-c4ccccc4)nc3[nH]2)C1 [Example 15, (R)-3-fluoro-3-(5-phenyl-3H-imidazo[4,5-b]pyridin-2-yl)piperidine-1-carbonitrile] | 100 to 1000 nM
N#Cc1cc(-c2cnc3nc([C@@]4(F)CCCN(C#N)C4)[nH]c3c2)ccn1 [Example 18, (R)-4-(2-(1-cyano-3-fluoropiperidin-3-yl)-3H-imidazo[4,5-b]pyridin-6-yl)picolinonitrile] | 100 to 1000 nM
N#Cc1cc(-c2ccc3nc([C@@]4(F)CCCN(C#N)C4)[nH]c3n2)ccn1 [Example 19, (R)-4-(2-(1-cyano-3-fluoropiperidin-3-yl)-1H-imidazo[4,5-b]pyridin-5-yl)picolinonitrile] | 100 to 1000 nM
N#Cc1cccc(-c2ccc3nc([C@@]4(F)CCCN(C#N)C4)[nH]c3n2)n1 [Example 21, (R)-6-(2-(1-cyano-3-fluoropiperidin-3-yl)-3H-imidazo[4,5-b]pyridin-5-yl)picolinonitrile] | 1000 to 10000 nM
N#Cc1cccc(-c2ccc3oc([C@@]4(F)CCCN(C#N)C4)nc3c2)c1 [Example 22, (R)-3-(5-(3-cyanophenyl)benzo[d]oxazol-2-yl)-3-fluoropiperidine-1-carbonitrile] | 10 to 100 nM
N#Cc1cc(-c2ccc3oc([C@@]4(F)CCCN(C#N)C4)nc3c2)ncn1 [Example 23, (R)-6-(2-(1-cyano-3-fluoropiperidin-3-yl)benzo[d]oxazol-5-yl)pyrimidine-4-carbonitrile] | 100 to 1000 nM
N#Cc1ccnc(-c2ccc3oc([C@@]4(F)CCCN(C#N)C4)nc3c2)n1 [Example 24, (R)-2-(2-(1-cyano-3-fluoropiperidin-3-yl)benzo[d]oxazol-5-yl)pyrimidine-4-carbonitrile] | 100 to 1000 nM
N#Cc1cc(-c2ccc3oc([C@@]4(F)CCCN(C#N)C4)nc3c2)ccn1 [Example 25, (R)-4-(2-(1-cyano-3-fluoropiperidin-3-yl)benzo[d]oxazol-5-yl)picolinonitrile] | 10 to 100 nM
N#Cc1ccnc(-c2ccc3oc([C@@]4(F)CCCN(C#N)C4)nc3c2)c1 [Example 26, (R)-2-(2-(1-cyano-3-fluoropiperidin-3-yl)benzo[d]oxazol-5-yl)isonicotinonitrile] | 100 to 1000 nM
N#Cc1cc(-c2ccc3nc([C@@]4(F)CCCN(C#N)C4)oc3c2)ccn1 [Example 27, (R)-4-(2-(1-cyano-3-fluoropiperidin-3-yl)benzo[d]oxazol-6-yl)picolinonitrile] | 100 to 1000 nM
N#Cc1cccc(-c2cnc3nc(C4(F)CCCN(C#N)C4)oc3c2)c1 (centres unmarked) [Example 29, 3-(6-(3-cyanophenyl)oxazolo[4,5-b]pyridin-2-yl)-3-fluoropiperidine-1-carbonitrile] | 100 to 1000 nM
N#Cc1cc(-c2cnc3oc([C@@]4(F)CCCN(C#N)C4)nc3c2)ccn1 [Example 30, (R)-4-(2-(1-cyano-3-fluoropiperidin-3-yl)oxazolo[5,4-b]pyridin-6-yl)picolinonitrile] | 100 to 1000 nM
N#Cc1cc(-c2ccn3cc([C@@]4(F)CCCN(C#N)C4)nc3c2)ccn1 [Example 31, (R)-4-(2-(1-cyano-3-fluoropiperidin-3-yl)imidazo[1,2-a]pyridin-7-yl)picolinonitrile] | 100 to 1000 nM

Reference: US10927110B2, “Cyano-subtituted heterocycles with activity as inhibitors of USP30” (MISSION THERAPEUTICS LIMITED, priority 2016, dated 2021)
